Patent publication US12077503B2, “Substituted cyclic amides and their use as herbicides” (FMC CORPORATION, priority 2015, dated 2024)

Assays:
Assay type in all cases: in vivo
[1] = tested on: ragweed (common ragweed, Ambrosia elatior); test: Test A preemergence; details: Ambrosia artemisiifolia, pre-emergence, 240 h; for pest or weed control at 125 g/ha: 125 g ai/ha, preemergence, 0 to 100 scale where 0 is no effect and 100 is complete control, read-out: Ragweed plant response rating; for pest or weed control at 500 g/ha: 500 g ai/ha, Preemergence, visual injury vs untreated controls after approximately 10 d, read-out: Ragweed plant response rating (0 to 100 scale where 0 is no effect and 100 is complete control)
Method in brief: (§1)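 Visual injury, scored on a 0–100 scale relative to untreated controls, was recorded about 10 d after application. Treatments were a preemergence soil spray over planted seeds or a postemergence spray on plants at the one- to two-leaf stage, 2 to 10 cm tall, all in loam soil–sand blend in the greenhouse.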

[2] = tested on: Galium (catchweed bedstraw, Galium aparine); test: Test A postemergence; details: Galium, post-emergence, 240 h, 125 g ai/ha, postemergence, visual injury rating after approximately 10 d; read-out: Galium plant response rating (0 to 100 scale, 0 no effect, 100 complete control)
Method in brief: as §1

Kochia (Kochia scoparia) = test: Test A postemergence; details: Bassia scoparia, post-emergence, 240 h, 125 g ai/ha, postemergence, visual injury rating after approximately 10 d; read-out: Kochia plant response rating (0 to 100 scale, 0 no effect, 100 complete control)
Method in brief: as §1

[3] = tested on: barnyardgrass (Echinochloa crus-galli); test: Test A postemergence; details: Echinochloa crus-galli, post-emergence, 240 h, 125 g ai/ha, postemergence, visual injury rating after approximately 10 d; read-out: Barnyardgrass plant response rating (0 to 100 scale, 0 no effect, 100 complete control)
Method in brief: as §1

[4] = tested on: blackgrass (Alopecurus myosuroides); test: Test A postemergence; details: Alopecurus myosuroides, post-emergence, 240 h, 125 g ai/ha, postemergence, visual injury rating after approximately 10 d; read-out: Blackgrass plant response rating (0 to 100 scale, 0 no effect, 100 complete control)
Method in brief: as §1

corn (Zea mays) = test: Test A postemergence; details: Zea mays, post-emergence, 240 h, 125 g ai/ha, postemergence, visual injury rating after approximately 10 d; read-out: Corn plant response rating (0 to 100 scale, 0 no effect, 100 complete control)
Method in brief: as §1

[5] = tested on: giant foxtail (Setaria faberii); test: Test A postemergence; details: Setaria faberi, post-emergence, 240 h, 125 g ai/ha, postemergence, visual injury rating after approximately 10 d; read-out: Foxtail, Giant plant response rating (0 to 100 scale, 0 no effect, 100 complete control)
Method in brief: as §1

[6] = tested on: pigweed (Amaranthus retroflexus); test: Test A postemergence; details: Amaranthus retroflexus, post-emergence, 240 h, 125 g ai/ha, postemergence, visual injury rating after approximately 10 d; read-out: Pigweed plant response rating (0 to 100 scale, 0 no effect, 100 complete control)
Method in brief: as §1

[7] = tested on: ragweed (common ragweed, Ambrosia elatior); test: Test A postemergence; details: Ambrosia artemisiifolia, post-emergence, 240 h, 125 g ai/ha, postemergence, visual injury rating after approximately 10 d; read-out: Ragweed plant response rating (0 to 100 scale, 0 no effect, 100 complete control)
Method in brief: as §1

[8] = tested on: ryegrass, Italian (Italian ryegrass, Lolium multiflorum); test: Test A postemergence; details: Lolium multiflorum, post-emergence, 240 h, 125 g ai/ha, postemergence, visual injury rating after approximately 10 d; read-out: Ryegrass, Italian plant response rating (0 to 100 scale, 0 no effect, 100 complete control)
Method in brief: as §1

[9] = tested on: wheat (Triticum aestivum); test: Test A postemergence; details: Triticum aestivum, post-emergence, 240 h, 125 g ai/ha, postemergence, visual injury rating after approximately 10 d; read-out: Wheat plant response rating (0 to 100 scale, 0 no effect, 100 complete control)
Method in brief: as §1

[10] = tested on: barnyardgrass (Echinochloa crus-galli); test: Test B flooded paddy test; details: Echinochloa crus-galli, Flood, 250 g ai/ha; scale of 0 to 100 where 0 is no effect and 100 is complete control; read-out: Barnyardgrass plant response rating
Method in brief: (§2)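 Response scored visually against untreated controls, 0 = no effect and 100 = complete control, 13–15 d after treatment in the greenhouse. Compounds added to paddy water held 3 cm above soil surface. Treatment given at 2-leaf stage.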

[11] = tested on: ducksalad (Heteranthera limosa); test: Test B flooded paddy test; details: Heteranthera limosa, Flood, 250 g ai/ha; scale of 0 to 100 where 0 is no effect and 100 is complete control; read-out: Ducksalad plant response rating
Method in brief: as §2

rice (Oryra sativa) = test: Test B flooded paddy test; details: Oryza sativa, Flood, 250 g ai/ha; scale of 0 to 100 where 0 is no effect and 100 is complete control; read-out: Rice plant response rating
Method in brief: as §2

[12] = tested on: sedge, umbrella (small-flower umbrella sedge, Cyperus difformis); test: Test B flooded paddy test; details: Cyperus difformis, Flood, 250 g ai/ha; scale of 0 to 100 where 0 is no effect and 100 is complete control; read-out: Sedge, Umbrella plant response rating
Method in brief: as §2

Row | SMILES | pest or weed control at 125 g/ha [1] | pest or weed control at 500 g/ha [1] | pest or weed control at 125 g/ha [2] | pest or weed control at 125 g/ha (Kochia (Kochia scoparia)) | pest or weed control at 125 g/ha [3] | pest or weed control at 125 g/ha [4] | plant injury at 125 g/ha (corn (Zea mays)) | pest or weed control at 125 g/ha [5] | pest or weed control at 125 g/ha [6] | pest or weed control at 125 g/ha [7] | pest or weed control at 125 g/ha [8] | plant injury at 125 g/ha [9] | pest or weed control at 250 g/ha [10] | pest or weed control at 250 g/ha [11] | pest or weed control at 250 g/ha (rice (Oryra sativa)) | pest or weed control at 250 g/ha [12]
1 | CN1C[C@H](c2cccc(C3CC3)c2)[C@@H](C(=O)Nc2ccccc2S(C)(=O)=O)C1=O [Compound 817] | 20% | 50% | 40% | 0% | 90% | 40% | 50% | 90% | 0% | 0% | 30% | 50% | 60% | 90% | 0% | 0%
2 | CN1C[C@H](c2cccc(C3CC3)c2)[C@@H](C(=O)Nc2ccc(F)cc2F)C1=O [Compound 818] | 0% | 0% | 50% | 40% | 90% | 30% | 40% | 90% | 20% | 0% | 40% | 0% | 55% | 80% | 0% | 0%
3 | CC(C)c1cccc([C@H]2CN(C)C(=O)[C@@H]2C(=O)Nc2ccccc2F)c1 [Compound 819] | 0% | 20% | 50% | 30% | 100% | 60% | 40% | 90% | 30% | 0% | 70% | 30% | 65% | 100% | 0% | 0%
4 | CN1C[C@H](c2cccc(F)c2)[C@@H](C(=O)Nc2ccccc2C(F)(F)F)C1=O [Compound 823] | 0% | 40% | 30% | 20% | 90% | 20% | 0% | 90% | 20% | 20% | 0% | 0% | 40% | 90% | 0% | 0%
5 | N#Cc1cccc(NC(=O)[C@H]2C(=O)NC[C@@H]2c2cccc(C(F)(F)F)c2)c1F [Compound 829] | 30% | 70% | 30% | 0% | 80% | 40% | 30% | 90% | 0% | 0% | 20% | 30% | 55% | 70% | 0% | 0%
6 | COc1ccccc1NC(=O)[C@H]1C(=O)N(C)C[C@@H]1c1ccc(C(F)(F)F)cc1 [Compound 843] | 0% | 30% | 30% | 40% | 40% | 0% | 0% | 70% | 20% | 0% | 0% | 0% | 0% | 20% | 0% | 0%
7 | CN1CC(c2cccc(I)c2)C(C(=O)Nc2ccccc2F)C1=O (stereo not drawn) [Compound 846] | 0% | 0% | 0% | 40% | 90% | 50% | 60% | 90% | 0% | 0% | 70% | 0% | 60% | 60% | 0% | 0%
8 | Cc1cc(F)cc([C@H]2CNC(=O)[C@@H]2C(=O)Nc2ccc(F)c(F)c2F)c1 [Compound 848] | 0% | 30% | 30% | 0% | 90% | 0% | 0% | 70% | 0% | 0% | 0% | 0% | 60% | 100% | 0% | 0%
9 | Cc1cc(F)cc([C@H]2CN(C)C(=O)[C@@H]2C(=O)Nc2cccc(F)c2F)c1 [Compound 849] | 80% | 90% | 60% | 0% | 90% | 30% | 70% | 90% | 0% | 0% | 0% | 30% | 75% | 100% | 15% | 0%
